Measured values taken from article PMC9681820, “A PDE10A inhibitor CPL500036 is a novel agent modulating striatal function devoid of most neuroleptic side-effects” (Frontiers in Pharmacology, 2022).
pIC50: −log10 of the molar value.

Experiments:
[1] = system: unilateral rat model of Parkinson’s disease; design: method as in Lenda et al., 2021; conditions: Parkinson’s disease animal model; ref Lenda et al., 2021; cited from earlier work
[2] = target: PDE10A (Homo sapiens, UniProt Q9Y233); test: LabChip microfluidic mobility-shift assay, IC50 against PDE10A; format: biochemical; conditions: eight concentrations 0.1 nM to 300 nM, duplicate
Procedure: IC50 determination was assessed using LabChip® microfluid technology (PerkinElmer, Hopkinton, MA, United States) in line with the service-provider’s protocol. CPL500036 was tested at eight concentrations ranging from 0.1 nM to 300 nM. The assay was run on the EZ Reader™ II platform (Caliper Life Sciences, Hopkinton, MA, United States). After the incubation period, levels of the reaction products and remaining substrate were measured. Analyzed data were from duplicate measurement, and IC50 was determined using a variable slope with Prism 5 (GraphPad, San Diego, CA, United States).

[3] = system: cardiac 3D spheroids (cardiomyocytes and fibroblasts derived from human pluripotent cells); test: Cardiotoxicity in spontaneously beating cardiac 3D spheroids; format: cell-based
Procedure: The cardiotoxic effect of CPL500036 was evaluated in spontaneously beating cardiac 3D spheroids (comprising cardiomyocytes and fibroblasts derived from human pluripotent cells) by Cyprotex (Cheshire, United Kingdom). Experiments were carried out in accordance with the service-provider’s protocol. Specific parameters of cell health were assessed: number and size of spheroids, DNA structure, intracellular level of calcium ions, mitochondrial mass, membrane potential and cellular ATP. […] During the 14 days of the experiment, redosing occurred on three occasions. Spheroid hypertrophy was measured on days 3, 7, 10, and 14 using the “brightfield live cellular imaging” mode of a Cellomics ArrayScan® XTI system (Thermo Scientific, Waltham, MA, United States). On day-14, the spheroid model was analyzed using the confocal mode of Cellomics ArrayScan XTI following incorporation of appropriate fluorescent dyes. Subsequently, cellular ATP content was measured using CellTiterGlo® (Promega, Fitchburg, WI, United States). Mitomicyn C and dasatinib were used as positive controls (Supplementary Table S1).
concentration at which 50% maximum effect is observed for each cell health parameter; NR - No response observed.

Sequence of PDE10A (Q9Y233 whole entry, species assumed): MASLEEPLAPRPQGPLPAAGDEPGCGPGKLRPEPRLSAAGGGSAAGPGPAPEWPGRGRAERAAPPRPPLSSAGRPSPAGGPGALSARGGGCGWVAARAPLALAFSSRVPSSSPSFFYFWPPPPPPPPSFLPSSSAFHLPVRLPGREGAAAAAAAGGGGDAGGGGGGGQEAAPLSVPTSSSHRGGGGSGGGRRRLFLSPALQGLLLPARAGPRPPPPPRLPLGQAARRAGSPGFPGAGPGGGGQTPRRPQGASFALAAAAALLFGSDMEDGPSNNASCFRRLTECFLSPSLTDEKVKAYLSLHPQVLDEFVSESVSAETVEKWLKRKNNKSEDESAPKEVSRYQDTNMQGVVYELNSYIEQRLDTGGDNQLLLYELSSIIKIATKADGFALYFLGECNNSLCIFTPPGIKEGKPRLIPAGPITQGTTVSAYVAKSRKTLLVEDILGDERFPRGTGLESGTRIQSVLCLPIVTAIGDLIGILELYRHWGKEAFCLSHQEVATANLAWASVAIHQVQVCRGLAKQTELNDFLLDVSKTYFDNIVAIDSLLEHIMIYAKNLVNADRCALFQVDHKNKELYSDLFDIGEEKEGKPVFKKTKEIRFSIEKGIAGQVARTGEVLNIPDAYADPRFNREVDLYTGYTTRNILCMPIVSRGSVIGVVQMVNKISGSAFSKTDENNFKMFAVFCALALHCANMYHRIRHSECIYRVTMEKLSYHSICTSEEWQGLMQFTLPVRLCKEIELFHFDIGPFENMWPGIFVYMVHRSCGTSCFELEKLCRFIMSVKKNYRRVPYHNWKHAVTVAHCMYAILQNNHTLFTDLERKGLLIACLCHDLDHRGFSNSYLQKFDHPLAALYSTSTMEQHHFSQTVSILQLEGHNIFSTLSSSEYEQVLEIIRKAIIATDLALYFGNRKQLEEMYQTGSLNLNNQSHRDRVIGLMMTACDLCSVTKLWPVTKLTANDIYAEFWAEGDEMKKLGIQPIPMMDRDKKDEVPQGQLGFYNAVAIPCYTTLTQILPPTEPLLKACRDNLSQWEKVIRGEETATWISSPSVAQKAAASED

For `Cc1ncc(C)n2nc(-c3ccn4cc(-c5ccccc5)nc4n3)nc12` [CPL500036, 7-[5,8-Dimethyl-(1,2,4)triazolo (1,5-a)pyrazin-2-yl]-2-phenylimidazo (1,2-a) pyrimidine], the “dose showing therapeutic activity” value [1] is listed as 0.1 mg/kg, the pIC50 [2] is listed as 9.00 and the “effect on the number or size of spheroids, intracellular calcium concentration, mitochondrial mass, membrane potential or intracellular ATP” value ([3]; 0.0457 μM–100 µM) is listed as “no effect”. For the same compound, the pIC50 ([3]; Homo sapiens, 3D cardiac spheroids, 0.0457 μM–100 µM, read-out: IC50, impaired DNA structure) was 4.43 and the AC50 ([3]; Homo sapiens, 3D cardiac spheroids, read-out: DNA structure AC50) was 37.4 µM.
